Reference: patent publication US4493843A, “Indole and indoline carboxylic acid compounds and method of use” (May & Baker Limited, priority 1980, dated 1985)
Counter-ions that a name gives are not always drawn. Like-named read-outs stand apart in the source and are kept apart here.

Tested on: serum cholesterol and serum triglycerides
Assay: Hypolipidaemic activity in rats (compound in diet, last 7 of 10 days)
Type: in vivo, Male Wistar rats
Conditions: Rattus norvegicus, po, 168 h, 7 days; for change in vivo at 0.2 % strength: 0.2 % w/w dose in diet; for change in vivo at 0.1 % strength: 0.1 % w/w dose in diet; for change in vivo at 0.03 % strength: 0.03 % w/w dose in diet
Procedure: Hypolipidaemic Activity in Rats
Male Wistar rats each weighing between 120 and 150 g were caged in groups of eight and fed a powdered diet for 10 days. For the last 7 days of that period the test compound was administered orally by mixing the compound in the diet and allowing the animals to feed normally. Food consumption was measured on day 9 for each group.
At noon on day 10 the animals were killed by inhalation of carbon dioxide from solid carbon dioxide. A sample of blood was removed by cardiac puncture and the serum cholesterol and serum triglycerides were analysed by means of an autoanalyser.
Control groups (receiving only the normal, unmedicated diet) were included with each test.
The percentage reductions in the concentrations of serum cholesterol and serum triglycerides were calculated by comparison with the simultaneous controls, for each concentration of the test compound used.

[1] = read-out: % change in serum cholesterol compared with control
[2] = read-out: % change in serum triglycerides compared with control

| SMILES | change in vivo at 0.2 % strength [1] | change in vivo at 0.2 % strength [2] | change in vivo at 0.1 % strength [1] | change in vivo at 0.1 % strength [2] | change in vivo at 0.03 % strength [1] | change in vivo at 0.03 % strength [2] |
| --- | --- | --- | --- | --- | --- | --- |
| CCCCCCCc1cc2cc(C(=O)OCCCC)ccc2[nH]1 [Compound ARR, n-butyl 2-(n-heptyl)indole-5-carboxylate] | 8% | 20% |  |  |  |  |
| CCCCCCCCCCCCCCCCCCCCc1cc2cc(C(=O)O)ccc2[nH]1 [Compound AA, 2-(n-eicosyl)indole-5-carboxylic acid] | -36% | -57% |  |  |  |  |
| CCCCCCCCCCCCCCCCCC1Cc2cc(C(=O)O)ccc2N1 (racemic) [Compound ADD, (RS)-2-(n-heptadecyl)indoline-5-carboxylic acid] | -6% | -40% |  |  |  |  |
| CCCCCCCCCCCCCCCCc1c[nH]c2cc(C(=O)O)ccc12 [Compound BFF, 3-(n-hexadecyl)indole-6-carboxylic acid] | 7% | -17% |  |  |  |  |
| CCCCCCCCCCCc1cc2cc(C(=O)OC)ccc2[nH]1 [Compound ATT, methyl 2-(n-undecyl)indole-5-carboxylate] | -16% | -70% |  |  |  |  |
| CCCCCCCCCCCCCCCCCCC1CNc2cc(C(=O)O)ccc21 (racemic) [Compound CBB, (RS)-3-(n-octadecyl)indoline-6-carboxylic acid] | 2% | -7% |  |  |  |  |
| CCCCCCCCCCCCCCc1cc2ccc(C(=O)O)cc2[nH]1 [Compound SS, 2-(n-tetradecyl)indole-6-carboxylic acid] | -14% | 3% |  |  |  |  |
| CCCCCCCCCCCc1cc2c(C(=O)O)cccc2[nH]1 [Compound W, 2-(n-undecyl)indole-4-carboxylic acid] | -3% | 22% |  |  |  |  |
| CCCCCCCCCCCCCCCc1cc2ccc(C(=O)O)cc2[nH]1 [D sodium salt] |  |  | -10% | -18% |  |  |
| CCCCCCCCCCCc1cc2cccc(C(=O)O)c2[nH]1 [Compound XX, 2-(n-undecyl)indole-7-carboxylic acid] | -2% | 8% |  |  |  |  |
| CCCCCCCCCc1cc2cc(C(=O)O)ccc2[nH]1 [Compound O, 2-(n-nonyl)indole-5-carboxylic acid] | -13% | -44% |  |  |  |  |
| CCCCCCCCCCC1Cc2ccc(C(=O)O)cc2N1 (racemic) [Compound ZZ, (RS)-2-(n-decyl)indoline-6-carboxylic acid] | -32% | -77% |  |  |  |  |
| CCCCCCCCCCCCCCCCc1c[nH]c2ccc(C(=O)O)cc12 [Compound BHH, 3-(n-hexadecyl)indole-5-carboxylic acid] | -6% | -10% |  |  |  |  |
| CCCCCCCCCCCCCCCCc1cc2cc(C(=O)O)ccc2[nH]1 [Compound OO, 2-(n-hexadecyl)indole-5-carboxylic acid] | -52% | -75% |  |  |  |  |
| CCCCCCCCc1c[nH]c2cc(C(=O)OC)ccc12 [Compound AZZ, methyl 3-(n-octyl)indole-6-carboxylate] | -18% | 24% |  |  |  |  |
| CCCCCCCCCCC1CNc2cc(C(=O)O)ccc21 (racemic) [Compound BYY, (RS)-3-(n-decyl)indoline-6-carboxylic acid] | -23% | -50% |  |  |  |  |
| CCCCCCCCCCCc1cc2ccc(C(=O)OCCCC)cc2[nH]1 [Compound GG, n-butyl 2-(n-undecyl)indole-6-carboxylate] | -11% | -35% |  |  |  |  |
| CCCCCCCCC1CNc2cc(C(=O)OC)ccc21 (racemic) [Compound CEE, (RS)-methyl 3-(n-octyl)indoline-6-carboxylate] | -16% | -16% |  |  |  |  |
| CCCCCCCCCCCC1Cc2cc(C(=O)O)ccc2N1 (racemic) [Compound YY, (RS)-2-(n-undecyl)indoline-5-carboxylic acid] | -32% | -64% | -21% | -65% | -25% | -51% |
| CCCCCCCCC1CNc2ccc(C(=O)O)cc21 (racemic) [Compound BQQ, (RS)-3-(n-octyl)indoline-5-carboxylic acid] | 11% | 31% |  |  |  |  |
